{
  "source": "a melting point compilation (Tetko et al.; mined from patent text by program, amines drawn as free bases though some values may be those of a salt)",
  "data": [
    {"units": {"melting point": "°C"}, "values": [
      {"compound": "COc1ccc(CC2CC(=O)CCN2C(=O)c2cc(C(F)(F)F)cc(C(F)(F)F)c2)cc1OC", "note": "(centres undefined)", "melting point": 133},
      {"compound": "Cc1cnc2n1-c1ccc(Cl)cc1C(c1ccccc1Cl)=NC2", "melting point": "148 to 149"},
      {"compound": "CN(C)c1nc(N(C)Cc2ccccc2O)nc(N(C)Cc2ccccc2O)n1", "melting point": "156 to 157"},
      {"compound": "CC(=O)c1cccc(F)c1C(=O)O", "melting point": "76 to 81.5"},
      {"compound": "Cc1ccc(S(=O)(=O)NCCC2CCC(CC(=O)O)CC2)cc1", "note": "(centres undefined)", "melting point": "104 to 105"},
      {"compound": "Cn1ccnc1N1CCC(c2ccc(N)cc2)CC1", "melting point": "187 to 188"},
      {"compound": "COC(=O)C1CCN2C(=O)C(=O)c3cc(Br)cc1c32", "note": "(centres undefined)", "melting point": "150 to 151"},
      {"compound": "COC(=O)c1ccc2c([N+](=O)[O-])cc3c(c2c1)C(CCl)CN3", "note": "(centres undefined)", "melting point": "161 to 163"},
      {"compound": "COc1cc2c(cc1Nc1ncc(Cl)c(Nc3cc(C(N)=O)ccc3OC)n1)CCN(CCS(C)(=O)=O)CC2", "melting point": "232 to 243"},
      {"compound": "N#Cc1nc(O)c(-c2cc(O)c(O)c([N+](=O)[O-])c2)nc1C#N", "melting point": "> 300"},
      {"compound": "COc1ccc(C2=NN(C3CCN(C(=O)NC(C)(C)C)CC3)C(=O)[C@H]3CC=CC[C@@H]23)c2c1OC(C)(C)C2", "note": "(relative stereo)", "melting point": "145 to 147"},
      {"compound": "O=C(O)[C@H](Cc1ccccc1)NC(=O)[C@@H]1CCCN1S(=O)(=O)c1ccc(Cl)cc1", "melting point": "69 to 71"},
      {"compound": "O=C(O)c1cn(C2CC2)c2c(C(F)(F)F)c(N3CCC(c4ccccn4)C3)c(F)cc2c1=O", "note": "(centres undefined)", "melting point": "210 to 212"},
      {"compound": "NC(=O)c1nc(N)nc(N)c1-c1ccc(Cl)cc1Cl", "melting point": "298 to 299"},
      {"compound": "OCc1cnc2n1-c1ccc(Cl)cc1C(c1ccccc1)=NC2", "melting point": "210 to 213"},
      {"compound": "CCCCCCNC(C)=C1C(=O)OC(=O)C(C(C)=O)=C1O", "melting point": "80 to 82"},
      {"compound": "COc1cccc(CC2(c3ccc4[nH]ccc4c3)CCNC2)c1", "note": "(centres undefined)", "melting point": "170 to 171"},
      {"compound": "C=CCn1ccc2cc(NC(=O)c3nc4ccc(Cl)cc4n3Cc3ccccc3)ccc21", "melting point": "154 to 155"},
      {"compound": "O=C(CCCCSc1ccc(O)cc1)N1CCOCC1", "melting point": "112 to 113"},
      {"compound": "CCNc1ncccc1-c1cscc1-c1cccnc1F", "melting point": "127 to 129"},
      {"compound": "C[C@H](O)Cn1c(=O)c(Oc2ccc(F)cc2F)cc2cnc(N[C@@H](C)CO)nc21", "melting point": "182 to 184"},
      {"compound": "O=C(NC(Cc1ccccc1)C(=O)O)c1cc2cc(F)ccc2[nH]1", "note": "(centres undefined)", "melting point": "125 to 127"},
      {"compound": "CC(Cc1ccc(OCc2ccncc2)cc1)NCC(O)c1cccc(C(F)(F)F)c1", "note": "(centres undefined)", "melting point": "83 to 90"},
      {"compound": "CCCCCCCCCCCCc1ccc(S(=O)(=O)Cl)cc1", "melting point": "33 to 35"},
      {"compound": "CSc1cnc(NC(=O)c2ccc(OC(C)=O)cc2)s1", "melting point": "193 to 196"},
      {"compound": "Cn1c2ccc(F)cc2c(=O)n2nc(-c3nnn[nH]3)cc12", "melting point": "350 to 360"},
      {"compound": "CC(C)(O)COC(=O)N1CCN(C#N)CC1", "melting point": "90 to 92"},
      {"compound": "O=C1CCC(c2ccc(Cl)c(C(F)(F)F)c2)=NN1", "melting point": "195 to 198"},
      {"compound": "CC(=O)N(CCCC(=NNC(N)=S)c1ccc(F)cc1)C(C)C", "melting point": "155 to 157"},
      {"compound": "CCCCc1nc2c(N)nc3ccccc3c2n1CCCCS(C)(=O)=O", "melting point": "164 to 165"},
      {"compound": "COc1ccc(NC(=O)c2ccc([N+](=O)[O-])cc2NC(=O)c2ccc(C(C)(C)C)cc2)cc1", "melting point": 221},
      {"compound": "CCOC(=O)c1cnc2c(c(C)nc3cc(C)nn32)c1Cl", "melting point": "143 to 145"},
      {"compound": "CC[C@H](C)[C@H](NC(=O)c1ccc(C)cc1)NC(=S)Nc1cccnc1", "melting point": "102 to 104"},
      {"compound": "CC(C)(CO)c1ccc(C(=O)Nc2cn3cc(Cl)ccc3n2)cc1", "melting point": "240 to 242"},
      {"compound": "CC1(C)Cc2nc3ccccc3n2C(=O)N1", "melting point": "205 to 210"},
      {"compound": "C=CCOc1ccc(C=CC(=O)c2c(OC)cc(OC)cc2OC(=O)CC)cc1", "melting point": 83.5},
      {"compound": "COC(=O)c1cncc(-c2ccc(OC)c([N+](=O)[O-])c2)c1", "melting point": "192 to 194"},
      {"compound": "Cc1nn(-c2ccccc2)cc1C(=O)Nc1ccc(OCC(C)(C)C)c(C#N)c1", "melting point": "155 to 156"},
      {"compound": "Ic1cc(I)cc(Cc2cc(I)cc(I)c2)c1", "melting point": "104 to 107"},
      {"compound": "CCOc1cc(C(=O)NC2CC(C)(C)NC(C)(C)C2)ccc1-c1nc2cc(Cl)c(Cl)cc2[nH]1", "melting point": "> 280"},
      {"compound": "O=C(OCC1CCCO1)C1Oc2ccccc2Cc2ccccc2O1", "note": "(centres undefined)", "melting point": "83 to 85"},
      {"compound": "CCC(=O)c1ccn(S(=O)(=O)c2ccccc2)c1C", "melting point": "105 to 110"},
      {"compound": "CCCNC(=O)C1(CCCCc2ccc(NC(=O)c3ccccc3)cc2)c2ccccc2-c2ccccc21", "melting point": "171 to 173"},
      {"compound": "O=C1c2ccccc2C(=O)N1CC(=O)N1c2ccc(Cl)cc2N(Cc2ccccc2)C(=O)[C@H]2CCC[C@H]21", "note": "(relative stereo)", "melting point": "241 to 243"},
      {"compound": "COc1ccc(OC)c(C(=O)/C=C/C(=C/C(=O)O)c2ccccc2)c1", "melting point": 165},
      {"compound": "Cc1cc(-c2ccc(OC(F)(F)F)cc2)cc(-c2cccc(-c3cccc(S(=O)(=O)NC(C)(C)C)c3)n2)n1", "melting point": 148},
      {"compound": "Cc1cc(OC(=O)c2ccccc2)c2ccccc2c1O", "melting point": "172 to 174"},
      {"compound": "CCOC(=O)c1c(-c2ccccc2)c2cc(Cl)ccc2[nH]c1=O", "melting point": "223 to 224"},
      {"compound": "Cc1c(Cl)sn(-c2ccc(Cl)cc2)c1=O", "melting point": "104 to 106"},
      {"compound": "Cc1oc(-c2ccccc2)nc1COc1cncc(CO)c1", "melting point": "111 to 112"},
      {"compound": "CCC(CC)c1nn(-c2ccc(C(F)(F)F)nn2)cc1CCCO", "melting point": "86 to 87"},
      {"compound": "CCSc1nc(=O)n(C(=O)NC)s1", "melting point": 131},
      {"compound": "COc1ccc2[nH]cc(C3=CCN(C(=O)NCC4CCC(c5ccccc5)(N(C)C)CC4)CC3)c2c1", "note": "(centres undefined)", "melting point": "98 to 104"},
      {"compound": "CC1Cc2cc3c(cc2C(c2ccc([N+](=O)[O-])cc2)=NN1C(=O)CCCN)OCO3", "note": "(centres undefined)", "melting point": "110 to 112"},
      {"compound": "COc1cn(-c2cccc(-c3cnn(C)c3)c2F)nc(-c2ccnn2-c2ccccc2)c1=O", "melting point": "218 to 221"},
      {"compound": "Cc1c(Cl)ccc(S(C)(=O)=O)c1C=NO", "melting point": "164 to 168"},
      {"compound": "COCCOC(=O)C1=C(C(F)F)NC(C)=C(C(=O)OC(C)C)C1c1cccc(Cl)c1Cl", "note": "(centres undefined)", "melting point": "127 to 128"},
      {"compound": "O=C(C=Cc1ccccc1C(=O)Cl)c1ccc([N+](=O)[O-])cc1", "melting point": "133 to 134"},
      {"compound": "O=C(OC1CCCCC1)c1ccc(Cl)c([N+](=O)[O-])c1", "melting point": "57 to 58"},
      {"compound": "CCCOc1ccc(S(N)(=O)=O)cc1C1=NC(=O)C2=NC=NC2=N1", "melting point": "276 to 278"},
      {"compound": "CN1CCN(c2nc(-c3ccccc3Cl)c3cc([N+](=O)[O-])ccc3n2)CC1", "melting point": 204},
      {"compound": "O=C(O)c1ccc(-c2nc(-c3ccccc3C(F)(F)F)cs2)cc1", "melting point": "225 to 227"},
      {"compound": "Cc1cc(C)cc(C(=O)N2CCN(C(=O)CNC3CCN(C(=O)c4ccccc4)CC3)C(c3ccc(Cl)c(Cl)c3)C2)c1", "note": "(racemic)", "melting point": "94 to 96"},
      {"compound": "COC(=O)[C@]12OC(=O)C[C@H]1S[C@@H]1[C@H](NC(=O)COc3ccccc3)C(=O)N12", "melting point": "182 to 184"},
      {"compound": "O=C(Nc1cc(Cl)cc(Cl)c1)C(Cl)Cl", "melting point": "133 to 135"},
      {"compound": "CCCCCCCCCCCCCCCCCCOc1cc(NC(C)=O)cc([N+](=O)[O-])c1", "melting point": "103 to 107"},
      {"compound": "CCn1c(=O)c2ccc(C(=O)O)cc2n(Cc2ccc(Cl)cc2Cl)c1=O", "melting point": "238 to 240"},
      {"compound": "COc1ccc(C(=O)N2CCc3sccc3C2c2ccc(OC(F)(F)F)cc2)cc1", "note": "(centres undefined)", "melting point": "68 to 70"},
      {"compound": "COc1ccc(-c2nc(C)c(C(C)=O)[nH]2)cc1", "melting point": "162 to 165"}
    ]}
  ]
}
